How the values were obtained:
[1] = molecular target: T1, Amine oxidase [flavin-containing] B (Mus musculus, UniProt Q8BW75); assay: Inhibition of mouse MAO-B preincubated for 15 mins followed by addition of kynuramine as substrate measured after 30 mins by fluorometric analysis
T1 sequence (Q8BW75 whole entry): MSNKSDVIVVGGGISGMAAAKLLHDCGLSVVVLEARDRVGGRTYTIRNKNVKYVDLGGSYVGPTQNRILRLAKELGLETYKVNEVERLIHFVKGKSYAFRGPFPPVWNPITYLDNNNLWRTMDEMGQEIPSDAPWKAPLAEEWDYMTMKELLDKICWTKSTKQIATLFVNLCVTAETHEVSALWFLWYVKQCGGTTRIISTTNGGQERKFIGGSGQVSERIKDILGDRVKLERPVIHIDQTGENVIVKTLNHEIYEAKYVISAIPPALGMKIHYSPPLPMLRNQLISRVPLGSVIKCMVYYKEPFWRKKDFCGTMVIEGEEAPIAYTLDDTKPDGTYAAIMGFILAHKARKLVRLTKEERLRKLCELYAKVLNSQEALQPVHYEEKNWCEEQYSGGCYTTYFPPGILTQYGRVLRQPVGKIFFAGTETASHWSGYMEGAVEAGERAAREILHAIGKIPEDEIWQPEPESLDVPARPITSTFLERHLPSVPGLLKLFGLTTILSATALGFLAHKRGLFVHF

[2] = molecular target: T2, Amine oxidase [flavin-containing] B (Homo sapiens, UniProt P27338); assay: Inhibition of recombinant human MAO-B expressed in baculovirus infected BTI insect cells preincubated for 10 mins followed by addition of benzylamine as substrate; type: cell-based
T2 sequence (P27338 whole entry): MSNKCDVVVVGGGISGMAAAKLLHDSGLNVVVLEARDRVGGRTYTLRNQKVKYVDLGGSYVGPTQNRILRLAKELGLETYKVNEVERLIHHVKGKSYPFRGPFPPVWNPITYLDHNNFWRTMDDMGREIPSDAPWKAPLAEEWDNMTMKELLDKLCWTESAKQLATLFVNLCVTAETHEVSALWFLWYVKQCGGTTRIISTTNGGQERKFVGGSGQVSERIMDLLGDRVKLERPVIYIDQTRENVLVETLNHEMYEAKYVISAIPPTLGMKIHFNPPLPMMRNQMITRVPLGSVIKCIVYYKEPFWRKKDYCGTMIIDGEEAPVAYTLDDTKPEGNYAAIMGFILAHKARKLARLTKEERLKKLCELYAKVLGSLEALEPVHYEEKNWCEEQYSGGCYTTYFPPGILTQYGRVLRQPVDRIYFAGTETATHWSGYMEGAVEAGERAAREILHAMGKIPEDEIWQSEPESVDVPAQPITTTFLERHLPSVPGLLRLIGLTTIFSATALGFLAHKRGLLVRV

Homo sapiens = organism: Homo sapiens; assay: Selectivity index, ratio of IC50 for recombinant human MAO-A expressed in baculovirus infected BTI insect cells to IC50 for recombinant human MAO-B expressed in baculovirus infected BTI insect cells
[3] = molecular target: T3, Amine oxidase [flavin-containing] A (Homo sapiens, UniProt P21397); assay: Inhibition of recombinant human MAO-A expressed in baculovirus infected BTI insect cells preincubated for 10 mins followed by addition of kynuramine as substrate
T3 sequence (P21397 whole entry): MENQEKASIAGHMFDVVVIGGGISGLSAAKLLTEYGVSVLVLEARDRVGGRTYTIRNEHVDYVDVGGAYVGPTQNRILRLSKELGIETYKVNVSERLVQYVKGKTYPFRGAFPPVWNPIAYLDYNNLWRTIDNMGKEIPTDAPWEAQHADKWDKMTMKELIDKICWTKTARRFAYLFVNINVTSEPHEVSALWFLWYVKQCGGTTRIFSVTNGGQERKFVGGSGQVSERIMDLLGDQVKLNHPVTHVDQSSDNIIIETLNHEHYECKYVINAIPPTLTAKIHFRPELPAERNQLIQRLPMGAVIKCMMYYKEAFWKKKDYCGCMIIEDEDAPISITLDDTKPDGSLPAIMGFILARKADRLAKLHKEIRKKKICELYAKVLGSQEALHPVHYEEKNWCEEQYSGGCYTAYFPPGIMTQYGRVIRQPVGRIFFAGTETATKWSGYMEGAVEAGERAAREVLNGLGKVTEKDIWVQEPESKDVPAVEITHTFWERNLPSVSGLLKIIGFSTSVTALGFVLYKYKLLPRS

[4] = molecular target: T2, Amine oxidase [flavin-containing] B; assay: Inhibition of recombinant human MAO-B expressed in baculovirus infected BTI insect cells assessed as residual activity at 20 uM preincubated for 10 mins followed by addition of 2 mM of benzylamine as substrate; settings: read-out: Activity
[5] = molecular target: T2, Amine oxidase [flavin-containing] B; assay: Reversible inhibition of recombinant human MAO-B expressed in baculovirus infected BTI insect cells assessed as residual activity at 20 uM preincubated for 10 mins followed by addition of 2 mM of benzylamine as substrate and further addition of 2 mM of benzylamine at the end of first reaction; settings: read-out: Activity
[6] = molecular target: T2, Amine oxidase [flavin-containing] B; assay: Time-dependent inhibition of recombinant human MAO-B expressed in baculovirus infected BTI insect cells at 20 uM pretreated with compound up to 30 mins followed by addition of benzylamine as substrate
[7] = molecular target: T4, Amine oxidase [flavin-containing] A (Mus musculus, UniProt Q64133); assay: Inhibition of mouse MAO-A preincubated for 15 mins followed by addition of kynuramine as substrate measured after 30 mins by fluorometric analysis
T4 sequence (Q64133 whole entry): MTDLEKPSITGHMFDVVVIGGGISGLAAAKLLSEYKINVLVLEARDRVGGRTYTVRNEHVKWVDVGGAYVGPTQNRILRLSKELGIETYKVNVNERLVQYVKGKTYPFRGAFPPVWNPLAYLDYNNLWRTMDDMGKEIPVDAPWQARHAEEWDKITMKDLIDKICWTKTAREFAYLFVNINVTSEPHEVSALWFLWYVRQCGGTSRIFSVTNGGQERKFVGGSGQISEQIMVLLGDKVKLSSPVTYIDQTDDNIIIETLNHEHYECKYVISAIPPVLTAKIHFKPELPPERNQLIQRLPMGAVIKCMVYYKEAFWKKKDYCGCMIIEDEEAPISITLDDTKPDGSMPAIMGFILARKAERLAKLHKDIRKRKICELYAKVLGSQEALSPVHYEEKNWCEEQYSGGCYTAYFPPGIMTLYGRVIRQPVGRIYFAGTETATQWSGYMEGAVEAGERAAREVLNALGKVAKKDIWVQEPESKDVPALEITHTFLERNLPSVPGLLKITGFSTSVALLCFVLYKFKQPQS

[8] = molecular target: T2, Amine oxidase [flavin-containing] B; assay: Time-dependent inhibition of recombinant human MAO-B expressed in baculovirus infected BTI insect cells at 8 uM pretreated with compound up to 30 mins followed by addition of benzylamine as substrate
[9] = molecular target: T2, Amine oxidase [flavin-containing] B; assay: Reversible inhibition of recombinant human MAO-B expressed in baculovirus infected BTI insect cells assessed as residual activity at 8 uM preincubated for 10 mins followed by addition of 2 mM of benzylamine as substrate and further addition of 2 mM of benzylamine at the end of first reaction; settings: read-out: Activity
[10] = molecular target: T2, Amine oxidase [flavin-containing] B; assay: Inhibition of recombinant human MAO-B expressed in baculovirus infected BTI insect cells assessed as residual activity at 8 uM preincubated for 10 mins followed by addition of 2 mM of benzylamine as substrate; settings: read-out: Activity
[11] = molecular target: T2, Amine oxidase [flavin-containing] B; assay: Time-dependent inhibition of recombinant human MAO-B expressed in baculovirus infected BTI insect cells at 1.5 uM pretreated with compound up to 30 mins followed by addition of benzylamine as substrate
[12] = molecular target: T2, Amine oxidase [flavin-containing] B; assay: Inhibition of recombinant human MAO-B expressed in baculovirus infected BTI insect cells assessed as residual activity at 1.5 uM preincubated for 10 mins followed by addition of 2 mM of benzylamine as substrate; settings: read-out: Activity
[13] = molecular target: T2, Amine oxidase [flavin-containing] B; assay: Competitive inhibition of recombinant human MAO-B expressed in baculovirus infected BTI insect cells using benzylamine as substrate by Lineweaver-Burk plot analysis
[14] = molecular target: T2, Amine oxidase [flavin-containing] B; assay: Reversible inhibition of recombinant human MAO-B expressed in baculovirus infected BTI insect cells assessed as residual activity at 1.5 uM preincubated for 10 mins followed by addition of 2 mM of benzylamine as substrate and further addition of 2 mM of benzylamine at the end of first reaction; settings: read-out: Activity
[15] = molecular target: T1, Amine oxidase [flavin-containing] B; assay: Competitive inhibition of mouse brain mitochondrial MAO-B using kynuramine as substrate by Lineweaver-Burk plot analysis

IC50 [1] [µM]	IC50 [2] [µM]	IC50 [3] [µM]	Structure (SMILES)	Ratio IC50 (Homo sapiens)	other results
0.5			C=C(C)[C@H](O)CC/C(C)=C/COc1ccc2ccc(=O)oc2c1		
0.6			CC(C)=CCC/C(C)=C/COc1ccc2ccc(=O)oc2c1		
	> 100	38.8	CC(C)=CCc1c(O)cc(O)c2c1O[C@H](c1ccc(O)cc1)CC2=O	< 0.39	
	10.3	20.3	COc1ccc2c(c1O)OC[C@H]1c3cc4c(cc3O[C@@H]21)OCO4	2	activity at 20 µM [4]: 26.3%; activity at 20 µM [5]: 54.9%; TDI [6]: Not Active
0.8			COc1ccc(-c2coc3cc(O)c(CC=C(C)C)c(O)c3c2=O)cc1		
	> 100	> 100	CC(C)=CCc1c(O)c(CC=C(C)C)c2c(c1O)C(=O)C[C@@H](c1ccc(O)cc1O)O2		
11	25.8	31.2	COc1ccc(-c2coc3cc(O)ccc3c2=O)cc1 [FORMONONETIN]	1.2	IC50 [7]: 21.2 µM
			O=c1c(-c2ccc(O)cc2)coc2cc(O)cc(O)c12 [GENISTEIN]		TDI [8]: Not Active; activity at 8 µM [9]: 59.5%; activity at 8 µM [10]: 25.3%
	0.68	85.8	Oc1ccc2c(c1)OC[C@H]1c3cc4c(cc3O[C@@H]21)OCO4 [MAACKIAIN]	126	TDI [11]: Not Active; activity at 1.5 µM [12]: 28.7%; Ki [13]: 0.054 µM; activity at 1.5 µM [14]: 66%
			COC(=O)/C=C/C=C/c1ccc2c(c1)OCO2 [METHYL PIPERATE]		Ki [15]: 1.3 µM
